Measured values published in PubChem BioAssay AID248 (DTP/NCI, 2004).
Values joined by “and” are separate entries in the source; they are usually repeats but may differ in a detail not shown here. Equal entries are not always repeated. Inconclusive results and toxic doses are left out. Rule as the data show it: active = T/C of 150% or more; inactive = T/C below 125%.

System: L1210 leukemia ip in BDF1 mice, survival T/C
Assay: NCI In Vivo Anticancer Drug Screen. Data for tumor model L1210 Leukemia (intraperitoneal) in B6D2F1 (BDF1) mice
Conditions: endpoint: mean survival time, higher = longer survival
In short: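 Antitumor effect is assessed in tumor-bearing animals. Survival in the compound arm is compared with a vehicle-dosed control arm and expressed as their quotient.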

[1] = dose: 100.0 mg/kg/injection, schedule: Q01DX001 (ip), vehicle: saline with Tween-80
[2] = dose: 200.0 mg/kg/injection, schedule: Q01DX001 (ip), vehicle: saline with Tween-80
[3] = dose: 100.0 mg/kg/injection, schedule: Q01DX001 (ip), vehicle: saline
[4] = dose: 200.0 mg/kg/injection, schedule: Q01DX001 (ip), vehicle: saline
[5] = dose: 100.0 mg/kg/injection, schedule: Q01DX009 (ip), vehicle: Klucel (hydroxypropylcellulose) (HPC)
[6] = dose: 200.0 mg/kg/injection, schedule: Q01DX009 (ip), vehicle: Klucel (hydroxypropylcellulose) (HPC)
[7] = dose: 400.0 mg/kg/injection, schedule: Q01DX009 (ip), vehicle: Klucel (hydroxypropylcellulose) (HPC)

Measured: T/C

CCCCCCCCCCCC(=O)NC(=S)NCc1cccnc1
inactive: [1] 92 % of control | dose: 100.0 mg/kg/injection, schedule: Q01DX009 (ip), vehicle: saline with Tween-80 101 % of control and 105 % of control | dose: 100.0 mg/kg/injection, schedule: Q04DX002 (ip), vehicle: saline with Tween-80 98 % of control and 100 % of control | [2] 93 % of control | dose: 200.0 mg/kg/injection, schedule: Q01DX009 (ip), vehicle: saline with Tween-80 99 % of control and 107 % of control | dose: 200.0 mg/kg/injection, schedule: Q04DX002 (ip), vehicle: saline with Tween-80 108 % of control and 112 % of control | dose: 400.0 mg/kg/injection, schedule: Q01DX001 (ip), vehicle: saline with Tween-80 98 % of control | dose: 400.0 mg/kg/injection, schedule: Q01DX009 (ip), vehicle: saline with Tween-80 96 % of control and 108 % of control | dose: 400.0 mg/kg/injection, schedule: Q04DX002 (ip), vehicle: saline with Tween-80 105 % of control

CCCN(CCC)CCCCN(CCC)CCCN(CCC)CCC
inactive: [3] 107 % of control | [4] 94 % of control

CC1N(N=O)CC1(Cl)c1ccccc1 (centres undefined)
inactive: dose: 100.0 mg/kg/injection, schedule: Q04DX002 (ip), vehicle: saline 98 % of control | dose: 200.0 mg/kg/injection, schedule: Q04DX002 (ip), vehicle: saline 98 % of control | dose: 400.0 mg/kg/injection, schedule: Q04DX002 (ip), vehicle: saline 102 % of control

CC(OC(=O)c1ccccc1)C(N)=S (centres undefined)
inactive: [3] 102 % of control | dose: 100.0 mg/kg/injection, schedule: Q01DX009 (ip), vehicle: acetone 93 % of control | dose: 100.0 mg/kg/injection, schedule: Q04DX003 (ip), vehicle: acetone 101 % of control | [4] 93 % of control | dose: 200.0 mg/kg/injection, schedule: Q01DX009 (ip), vehicle: acetone 95 % of control | dose: 200.0 mg/kg/injection, schedule: Q04DX003 (ip), vehicle: acetone 102 % of control | dose: 400.0 mg/kg/injection, schedule: Q01DX001 (ip), vehicle: saline 103 % of control | dose: 400.0 mg/kg/injection, schedule: Q01DX009 (ip), vehicle: acetone 96 % of control | dose: 400.0 mg/kg/injection, schedule: Q04DX003 (ip), vehicle: acetone 102 % of control

O=C(Nc1ccc(C2=NCCN2)cc1)c1cc(C(=O)Nc2ccc(C3=NCCN3)cc2)cc(C(=O)Nc2ccc(C3=NCCN3)cc2)c1
inactive: dose: 4.3 mg/kg/injection, schedule: Q01DX Z (ip), vehicle: saline 95 % of control | dose: 6.4 mg/kg/injection, schedule: Q01DX Z (ip), vehicle: saline 93 % of control | dose: 9.7 mg/kg/injection, schedule: Q01DX Z (ip), vehicle: saline 97 % of control and 92 % of control | dose: 15.0 mg/kg/injection, schedule: Q01DX Z (ip), vehicle: saline 92 % of control | dose: 22.0 mg/kg/injection, schedule: Q01DX Z (ip), vehicle: saline 88 % of control | dose: 33.0 mg/kg/injection, schedule: Q01DX Z (ip), vehicle: saline 97 % of control | dose: 111.0 mg/kg/injection, schedule: Q01DX Z (ip), vehicle: saline 93 % of control | dose: 166.0 mg/kg/injection, schedule: Q01DX Z (ip), vehicle: saline 90 % of control | dose: 250.0 mg/kg/injection, schedule: Q01DX Z (ip), vehicle: saline 87 % of control | dose: 375.0 mg/kg/injection, schedule: Q01DX Z (ip), vehicle: saline 88 % of control

CC(=O)Oc1ccc(/C=C/c2ccncc2)cc1
inactive: [5] 97 % of control | [6] 100 % of control | [7] 104 % of control

CCN(CC)CCCNc1c2ccccc2nc2ccccc12
inactive: dose: 5.0 mg/kg/injection, schedule: Q01DX001 (ip), vehicle: saline 113 % of control | dose: 10.0 mg/kg/injection, schedule: Q01DX001 (ip), vehicle: saline 104 % of control | dose: 20.0 mg/kg/injection, schedule: Q01DX001 (ip), vehicle: saline 115 % of control | dose: 40.0 mg/kg/injection, schedule: Q01DX001 (ip), vehicle: saline 87 % of control

COC(=O)C1=C(C)NC(=O)NC1c1ccccc1 (centres undefined)
inactive: dose: 100.0 mg/kg/injection, schedule: Q04DX003 (ip), vehicle: saline with Tween-80 105 % of control | dose: 200.0 mg/kg/injection, schedule: Q04DX003 (ip), vehicle: saline with Tween-80 97 % of control | dose: 400.0 mg/kg/injection, schedule: Q04DX003 (ip), vehicle: saline with Tween-80 100 % of control

O=C(Nc1c[nH]c(=O)[nH]c1=O)Oc1ccccc1
inactive: [5] 98 % of control | dose: 100.0 mg/kg/injection, schedule: Q04DX003 (ip), vehicle: Klucel (hydroxypropylcellulose) (HPC) 100 % of control | [6] 95 % of control | dose: 200.0 mg/kg/injection, schedule: Q04DX003 (ip), vehicle: Klucel (hydroxypropylcellulose) (HPC) 88 % of control | [7] 93 % of control | dose: 400.0 mg/kg/injection, schedule: Q04DX003 (ip), vehicle: Klucel (hydroxypropylcellulose) (HPC) 100 % of control

CCOC(=O)c1cnc(SC)nc1NNc1ccc([N+](=O)[O-])cc1
inactive: [1] 90 % of control | [2] 92 % of control

N=Nc1c2ccccc2c2nc3c(N)[nH]nc(N)c3nc12
inactive: dose: 100.0 mg/kg/injection, schedule: Q04DX002 (ip), vehicle: Klucel (hydroxypropylcellulose) (HPC) 107 % of control | dose: 200.0 mg/kg/injection, schedule: Q04DX002 (ip), vehicle: Klucel (hydroxypropylcellulose) (HPC) 103 % of control | dose: 400.0 mg/kg/injection, schedule: Q04DX002 (ip), vehicle: Klucel (hydroxypropylcellulose) (HPC) 100 % of control
